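Protocol summary: plate cells (96-well), add compound at 5 concentrations, incubate 48 h, interpolate endpoints linearly. Abbreviation: GI50, concentration required for 50% inhibition of growth.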 Active and inactive are the calls of the source. Cut-off read from the data, not from the text of the source: active = GI50 up to about 1.1 µM and inactive = higher. Where a SMILES comes first, the peptide text is derived from it. The star is where a group is joined. Cbz = O=C(OCc1ccccc1)*

The source of these data is ChEMBL document CHEMBL1201862, “PubChem BioAssay data set” (2004).

Among the test systems are CCRF-CEM; EKVX; T47D; LOX IMVI; SF-295; HCT-116; KM12; ACHN; UO-31; HL-60; SR; UACC-257; NCI-H460; M14; OVCAR-3; NCI-H522; TK-10; SN12C; 786-0; MDA-MB-435.
Common to all, as to assay: NCI-60 cell line screen, 48 h

Turning to `O=S(=O)([N-]c1nc2ccccc2nc1-[n+]1ccccc1)c1ccccc1`, the GI50 is 10.8 µM (inactive) in the test with CCRF-CEM; > 100 µM (inactive) with EKVX; 81.8 µM (inactive) in the test on T47D; > 100 µM (inactive) in the test with LOX IMVI; > 100 µM (inactive) with SF-295; > 100 µM (inactive) in the test with HCT-116. The GI50 was > 100 µM (inactive) in the test with KM12; > 100 µM (inactive) in the test with ACHN; > 100 µM (inactive) in the test with UO-31; 22.1 µM (inactive) with HL-60; 14.9 µM (inactive) in the test on SR; > 100 µM (inactive) in the test on UACC-257. Further, the GI50 in the test on NCI-H460 was > 100 µM (inactive); with M14 it was > 100 µM (inactive); with OVCAR-3 it was > 100 µM (inactive); with NCI-H522 it was > 100 µM (inactive); with TK-10, 71.4 µM (inactive); with SN12C, > 100 µM (inactive). Moreover, the GI50 in the test on 786-0 is > 100 µM (inactive).
With `COc1ccc(/N=N/C(=N/NC(=O)c2cc(Cl)ccc2C(=O)c2ccccc2)c2ccc(N(CCC#N)CCC#N)cc2C)cc1`, the GI50 is 4.54 µM (inactive) with CCRF-CEM; 27.6 µM (inactive) in the test with MDA-MB-435; 16.1 µM (inactive) in the test with EKVX; 15 µM (inactive) with T47D; 26.1 µM (inactive) in the test with SF-295; 13.1 µM (inactive) with HCT-116. Further, the GI50 with KM12 was 21.4 µM (inactive); in the test on ACHN, 25.6 µM (inactive); with UO-31 it was 20.3 µM (inactive); in the test with UACC-257, 27.7 µM (inactive); with NCI-H460, 11.5 µM (inactive); in the test with M14 it was 18.2 µM (inactive). Further, the GI50 in the test on OVCAR-3 is 5.04 µM (inactive); in the test with TK-10 it was 18.2 µM (inactive); in the test with SN12C, 14.6 µM (inactive); in the test with 786-0, 18.5 µM (inactive).
Turning to `COc1cc2c(cc1O)c(O)cc1c3cc(OC)c(OC)cc3c[n+](C)c21`, the GI50 was 1.37 µM (inactive) in the test on CCRF-CEM; 16.4 µM (inactive) with MDA-MB-435; > 100 µM (inactive) in the test on EKVX; 1.45 µM (inactive) in the test on T47D; 16.2 µM (inactive) in the test on LOX IMVI; 18.7 µM (inactive) in the test with SF-295. Further, the GI50 with HCT-116 is 23.1 µM (inactive); in the test on KM12 it was > 100 µM (inactive); in the test with ACHN, 56.6 µM (inactive); with UO-31, 53.5 µM (inactive); in the test with UACC-257, 51.8 µM (inactive); with NCI-H460, 15.9 µM (inactive). Also, the GI50 with M14 is > 100 µM (inactive); in the test on OVCAR-3 it was 20.7 µM (inactive); with NCI-H522 it was 0.0225 µM (active); in the test with TK-10, > 100 µM (inactive); in the test on SN12C, 1.24 µM (inactive); in the test with 786-0, 7.4 µM (inactive).
In the case of `CC[C@H]1C=CCC[C@@]2(C[C@@H]3CC[C@@H]4[C@H](C(=O)OCCCCCCCCCCCCCCCC(=O)N(CCCN)CCCCN)[C@]5(CCC[C@@H](C)O5)NC(=[N+]34)N2)O1`, the GI50 in the test on CCRF-CEM was 0.0151 µM (active); with MDA-MB-435, < 0.01 µM (active); with EKVX, 0.11 µM (active); in the test on LOX IMVI, 0.018 µM (active); in the test with SF-295 it was 0.024 µM (active); with HCT-116, 0.0275 µM (active). Also, the GI50 in the test with KM12 is 0.0459 µM (active); in the test on ACHN it was 0.0826 µM (active); in the test with UO-31 it was 0.0519 µM (active); in the test with SR, 0.0281 µM (active); in the test with UACC-257, 0.0171 µM (active); in the test on NCI-H460, 0.0301 µM (active). For the same molecule, the GI50 in the test with M14 is < 0.01 µM (active); in the test on OVCAR-3, 0.0738 µM (active); with NCI-H522, 0.0425 µM (active); in the test on TK-10 it was 1.23 µM (inactive); in the test on SN12C, 0.0753 µM (active); with 786-0 it was 0.0229 µM (active).
As to `C/C(NC(=O)c1ccccc1)=C(/C(=O)c1ccccc1)[C@@H]1OC(C)(C)O[C@@H]1[C@H]1COC(C)(C)O1`, the GI50 is 19.5 µM (inactive) in the test with MDA-MB-435; 16.4 µM (inactive) in the test on EKVX; 19.9 µM (inactive) with LOX IMVI; 30.9 µM (inactive) in the test with SF-295; 19.5 µM (inactive) in the test on HCT-116; 28.6 µM (inactive) in the test on KM12. Besides, the GI50 is 67.3 µM (inactive) in the test on ACHN; 15.5 µM (inactive) in the test with UO-31; 16 µM (inactive) in the test on HL-60; 19.5 µM (inactive) in the test with SR; 30.8 µM (inactive) in the test on UACC-257; 20.7 µM (inactive) in the test on NCI-H460. The GI50 with M14 is 30.8 µM (inactive); with OVCAR-3, 32.9 µM (inactive); with NCI-H522 it was 17.6 µM (inactive); in the test with TK-10, 77.6 µM (inactive); in the test with SN12C it was 25.2 µM (inactive); in the test with 786-0, 18.3 µM (inactive).
Turning to `Nc1nc(Cl)cc(OCC2(CO)CCCCC2)n1`, the GI50 in the test on CCRF-CEM is > 100 µM (inactive); in the test on MDA-MB-435, > 100 µM (inactive); with EKVX it was 84.7 µM (inactive); in the test on LOX IMVI, > 100 µM (inactive); with SF-295, > 100 µM (inactive); with HCT-116, > 100 µM (inactive). For the same molecule, the GI50 with ACHN is > 100 µM (inactive); in the test with HL-60 it was 85.7 µM (inactive); in the test with SR, > 100 µM (inactive); with UACC-257, 78.7 µM (inactive); in the test on NCI-H460 it was > 100 µM (inactive); in the test on OVCAR-3 it was > 100 µM (inactive). The GI50 with NCI-H522 is 53.1 µM (inactive); in the test with TK-10, > 100 µM (inactive); with SN12C, > 100 µM (inactive); in the test with 786-0 it was > 100 µM (inactive).
As for `COc1ccc2[nH]cc(C(=O)C(=O)NC34CC5CC(CC(C5)C3)C4)c2c1`, the GI50 in the test on CCRF-CEM was 9.48 µM (inactive); with MDA-MB-435 it was 41.3 µM (inactive); in the test on EKVX, > 50.1 µM (inactive); in the test with T47D, 54.1 µM (inactive); in the test with LOX IMVI, 7.21 µM (inactive); in the test on SF-295 it was 6.9 µM (inactive). The GI50 is 20.6 µM (inactive) in the test with HCT-116; > 26.9 µM (inactive) with KM12; 29.4 µM (inactive) with ACHN; > 100 µM (inactive) in the test with UO-31; 67.5 µM (inactive) in the test on UACC-257; 7.31 µM (inactive) with NCI-H460. Besides, the GI50 is 13.9 µM (inactive) with M14; 8.97 µM (inactive) in the test on OVCAR-3; 36.7 µM (inactive) with NCI-H522; 48.8 µM (inactive) in the test with TK-10; 18.9 µM (inactive) in the test on SN12C; 8.09 µM (inactive) with 786-0.
Turning to `CN(Cc1cnc2nc(N)nc(N)c2n1)c1ccc(C(=O)N[C@@H](CCS(=O)(=O)O)C(=O)O)cc1`, the GI50 is > 100 µM (inactive) with CCRF-CEM; > 73.3 µM (inactive) with EKVX; > 100 µM (inactive) with T47D; 0.0526 µM (active) in the test on LOX IMVI; 0.0766 µM (active) in the test on SF-295; 0.0352 µM (active) in the test on HCT-116. The GI50 in the test with KM12 was 1.64 µM (inactive); in the test on ACHN, 0.225 µM (active); in the test on UO-31, 0.698 µM (active); in the test on SR it was 0.0755 µM (active); in the test on UACC-257, > 100 µM (inactive); with NCI-H460 it was 0.169 µM (active). Moreover, the GI50 in the test with M14 was 0.111 µM (active); in the test on OVCAR-3 it was > 49.5 µM (inactive); with NCI-H522 it was 0.574 µM (active); in the test with SN12C it was > 100 µM (inactive); in the test on 786-0 it was 0.0583 µM (active).
Regarding `N#Cc1nc(C2CCC(=O)O2)oc1N` (stereo unspecified), the GI50 in the test on CCRF-CEM was > 100 µM (inactive); with MDA-MB-435 it was > 100 µM (inactive); with EKVX it was > 100 µM (inactive); in the test on LOX IMVI, 72.9 µM (inactive); with SF-295, > 100 µM (inactive); in the test with HCT-116, 83 µM (inactive). In addition, the GI50 in the test on KM12, in the test with ACHN, in the test with UO-31, with HL-60, in the test with SR and in the test with UACC-257 was > 100 µM (inactive) throughout. Moreover, the GI50 in the test with NCI-H460, with M14, in the test on OVCAR-3, in the test on TK-10, with SN12C and with 786-0 was > 100 µM (inactive) in each case.
For `COc1ccc(C(=O)c2cc(OC)c(OC)c(OC)c2)cc1OC`, the GI50 in the test with CCRF-CEM is 4.37 µM (inactive); with MDA-MB-435, 0.436 µM (active); in the test on EKVX, > 100 µM (inactive); in the test on LOX IMVI, 7.83 µM (inactive); with SF-295, 1.82 µM (inactive); in the test with HCT-116, 4.94 µM (inactive). Besides, the GI50 was 0.815 µM (active) in the test with KM12; 9.25 µM (inactive) with ACHN; 3.71 µM (inactive) in the test on UO-31; 2.67 µM (inactive) in the test with HL-60; 3.28 µM (inactive) in the test on SR; 27.2 µM (inactive) in the test on UACC-257. Moreover, the GI50 was 3.34 µM (inactive) in the test with NCI-H460; 8.83 µM (inactive) with M14; 3.71 µM (inactive) in the test with OVCAR-3; 3.63 µM (inactive) with NCI-H522; > 100 µM (inactive) in the test on TK-10; 7.21 µM (inactive) in the test with SN12C. In the test with 786-0, the GI50 is 4.98 µM (inactive).
As for `CCOC(=O)C(CC(=O)OC)NC(=O)C(CC(=O)OC)NC(=O)C(CC(=O)OC)NC(=O)C(CC(=O)OC)NC(=O)OCc1ccccc1` (stereo unspecified) (Cbz-D(OMe)D(OMe)D(OMe)D(OMe)-OEt; configuration not given here), the GI50 in the test on EKVX, in the test on T47D, in the test with HCT-116, in the test with KM12, in the test on ACHN and in the test with UO-31 was > 100 µM (inactive) in each case. Further, the GI50 in the test with HL-60, in the test with SR, in the test with UACC-257, in the test on NCI-H460, in the test on M14 and in the test on TK-10 was > 100 µM (inactive) throughout. The GI50 with SN12C and with 786-0 was > 100 µM (inactive) each time.
